Experimental data: US20110046173A1 (priority 2009, published 2011)

Legend:
analgesia = settings: mouse, in vivo; cited from earlier work
acute pain, bunionectomy = assay: Efficacy (SPID48) of 3 to 2 product vs morphine vs oxycodone, bunionectomy study (Example 2); format: in vivo, human; settings: for Mean SPID48 Score: 48 hr; for pain control by SPID48 (judged analgesic dose): low doses alone: morphine 6 mg, oxycodone 4 mg

| SMILES | interaction with morphine, morphine-6-β-glucuronide, codeine, and 6-acetylmorphine (analgesia) | Mean SPID48 Score (acute pain, bunionectomy; 6 mg q6h) | Mean SPID48 Score (acute pain, bunionectomy; 12 mg q6h) | pain control by SPID48 (judged analgesic dose) (acute pain, bunionectomy) | Mean SPID48 Score (acute pain, bunionectomy; 4 mg q6h) | Mean SPID48 Score (acute pain, bunionectomy; 8 mg q6h) |
| --- | --- | --- | --- | --- | --- | --- |
| CCC(=O)C(C[C@@H](C)N(C)C)(c1ccccc1)c1ccccc1 [L-methadone] | exhibited synergy |  |  |  |  |  |
| CN1CC[C@]23c4c5ccc(O)c4O[C@H]2[C@@H](O)C=C[C@H]3[C@H]1C5 [Morphine, morphine] |  | 51 | 106 | gave pain control |  |  |
| COc1ccc2c3c1O[C@H]1C(=O)CC[C@@]4(O)[C@@H](C2)N(C)CC[C@]314 [Oxycodone, oxycodone] |  |  |  | gave pain control | 60 | 99 |
